Values of other authors in patent US6403571B2, “Combination therapy for reducing the risks associated with cardiovascular disease” (Merck & Co., Inc., priority 1996, dated 2002).
Where a name gives a salt, the structure may show the parent alone. Where a SMILES comes first, the peptide text is derived from it. Bridges are numbered along the chain shown (N, C = ends). [ ]: non-standard residue; d: D form. hArg = N=C(N)NCCCC[C@H](N)C(=O)O; Mpa = O=C(O)CCS

Key:
[1] = target: T1, GP IIb/IIIa (Homo sapiens, UniProt P05106+P08514)
[2] = target: T1, GP IIb/IIIa; conditions: for selectivity for GP IIb/IIIa: administered intravenously
[3] = target: αvβ3 (Homo sapiens, UniProt P05106+P06756)
Sequence of αvβ3 (P06756 31-889 limits assumed): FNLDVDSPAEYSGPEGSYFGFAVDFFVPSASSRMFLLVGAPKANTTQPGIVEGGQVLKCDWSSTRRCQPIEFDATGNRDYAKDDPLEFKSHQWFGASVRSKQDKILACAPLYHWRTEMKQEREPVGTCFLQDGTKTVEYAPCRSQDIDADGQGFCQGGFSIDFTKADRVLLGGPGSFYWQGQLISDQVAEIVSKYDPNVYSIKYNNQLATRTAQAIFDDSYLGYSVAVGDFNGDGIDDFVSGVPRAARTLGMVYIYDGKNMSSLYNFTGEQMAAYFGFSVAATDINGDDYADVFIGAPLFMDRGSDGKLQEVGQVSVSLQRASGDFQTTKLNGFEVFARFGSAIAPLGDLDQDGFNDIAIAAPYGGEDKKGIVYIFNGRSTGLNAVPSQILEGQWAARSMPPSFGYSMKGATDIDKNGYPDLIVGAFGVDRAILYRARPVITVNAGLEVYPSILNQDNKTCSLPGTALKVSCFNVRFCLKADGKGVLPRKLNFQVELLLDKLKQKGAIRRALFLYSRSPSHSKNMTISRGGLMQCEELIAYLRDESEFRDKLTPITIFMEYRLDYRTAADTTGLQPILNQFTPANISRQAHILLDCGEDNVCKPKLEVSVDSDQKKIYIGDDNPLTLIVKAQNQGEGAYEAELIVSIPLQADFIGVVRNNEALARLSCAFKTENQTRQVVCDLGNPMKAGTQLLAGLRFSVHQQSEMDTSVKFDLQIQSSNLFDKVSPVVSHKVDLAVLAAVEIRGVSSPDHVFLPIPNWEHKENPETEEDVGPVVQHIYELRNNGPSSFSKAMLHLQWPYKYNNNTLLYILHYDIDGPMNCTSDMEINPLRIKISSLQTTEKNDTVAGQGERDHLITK
Sequence of αvβ3 (P06756 891-1048 partner limits assumed): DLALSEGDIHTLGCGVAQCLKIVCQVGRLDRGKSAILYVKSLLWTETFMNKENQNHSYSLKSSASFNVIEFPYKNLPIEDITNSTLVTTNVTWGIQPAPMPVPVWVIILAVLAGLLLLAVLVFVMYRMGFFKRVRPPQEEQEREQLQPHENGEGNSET
Sequence of αvβ3 (P05106 27-788): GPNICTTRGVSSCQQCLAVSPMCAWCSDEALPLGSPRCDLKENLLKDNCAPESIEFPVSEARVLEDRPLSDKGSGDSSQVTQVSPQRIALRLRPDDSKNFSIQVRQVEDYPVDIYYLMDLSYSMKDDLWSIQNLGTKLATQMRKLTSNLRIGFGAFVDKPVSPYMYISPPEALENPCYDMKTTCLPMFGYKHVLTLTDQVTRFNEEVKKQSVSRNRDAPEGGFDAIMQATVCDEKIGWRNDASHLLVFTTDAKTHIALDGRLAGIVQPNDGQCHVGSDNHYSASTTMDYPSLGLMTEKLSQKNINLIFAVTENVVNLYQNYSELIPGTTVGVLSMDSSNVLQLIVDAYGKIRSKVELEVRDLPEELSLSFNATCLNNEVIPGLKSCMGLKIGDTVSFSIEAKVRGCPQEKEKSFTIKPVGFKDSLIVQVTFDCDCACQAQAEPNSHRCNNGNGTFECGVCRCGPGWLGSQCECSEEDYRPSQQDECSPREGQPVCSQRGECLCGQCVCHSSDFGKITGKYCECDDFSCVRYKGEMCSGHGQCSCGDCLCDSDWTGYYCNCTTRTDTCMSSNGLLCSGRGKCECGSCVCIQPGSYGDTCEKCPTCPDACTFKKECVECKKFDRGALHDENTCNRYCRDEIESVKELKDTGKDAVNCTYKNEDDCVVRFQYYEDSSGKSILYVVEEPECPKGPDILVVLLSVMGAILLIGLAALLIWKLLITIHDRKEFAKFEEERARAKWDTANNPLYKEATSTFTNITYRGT

[4] = prodrug, requires biotransformation in vivo to its active form

## 7E3: monoclonal antibody which blocks the GP IIb/IIIa receptor and the αvβ3 receptor [Compound 7E3]
[1]; 7E3 added to heparin and aspirin, increasing from 3%
  need for transfusion: 6%
[1]; 7E3 added to heparin and aspirin, increasing from 7%
  incidence of patients with decreased hematocrit: 15%
[1]; 7E3 added to standard regime of heparin and aspirin, decrease from 12.8% without blockade
  combined endpoints of death, non-fatal myocardial infarction (MI) and need for urgent revascularization: 8.3%

## N=C(N)NCCCC[C@@H]1NC(=O)CCSSC[C@@H](C(N)=O)NC(=O)[C@@H]2CCCN2C(=O)[C@H](Cc2c[nH]c3ccccc23)NC(=O)[C@H](CC(=O)O)NC(=O)CNC1=O [Integrelin] ([Mpa][hArg]GDWPC-NH2; disulfide 1-7)
[2]
  effect on ligand binding to GP IIb/IIIa: inhibits ligand binding
[3]
  effect on ligand binding to αvβ3: very little effect

## CCCCS(=O)(=O)N[C@@H](Cc1ccc(OCCCCC2CCNCC2)cc1)C(=O)O [MK-383, 2-S-(n-Butylsulfonylamino)-3[4-piperidin-4-yl)butyloxyphenyl]propionic acid hydrochloride]
[2]
  selectivity for GP IIb/IIIa: selective

## N=C(N)c1ccc(C(=O)N[C@@H](Cc2ccc(O)cc2)C(=O)N2CCC(OCC(=O)O)CC2)cc1 [Ro 44-9883]
[2]
  selectivity for GP IIb/IIIa: selective

## C#C[C@H](CC(=O)OCC)NC(=O)CCC(=O)Nc1ccc(C(=N)N)cc1 [SC54684, ethyl 3-[[4-[[4-(aminoiminomethyl)phenyl]amino]-1,4-dioxobutyl]amino]-4-pentynoate]
[4]
  oral bioavailability: high oral bioavailability
